Laboratory results published in paper PMC7465886, “4-(N-Alkyl- and -Acyl-amino)-1,2,4-triazole-3-thione Analogs as Metallo-β-Lactamase Inhibitors: Impact of 4-Linker on Potency and Spectrum of Inhibition” (Biomolecules, 2020).

Assays:
VIM-2 = target: T1, VIM-2 (Escherichia coli, UniProt Q5U7L7); assay: MBL inhibition, reporter substrate method, VIM-2; format: biochemical; conditions: hydrazine and hydrazide series; read-out: Ki Value VIM-2
T1 construct: made in house; host or cells: E. coli BL21(DE3) derivative, pET-9a
Protocol: (§1) Compounds were prepared in DMSO at a final concentration of 50 mM prior to dilution in the assay buffer. The reaction rate was measured as the variation of absorbance observed upon substrate hydrolysis in a UV-Vis spectrophotometer or microplate reader at a wavelength of 300 nm (imipenem, meropenem), 260 nm (cefotaxime), or 482 nm (nitrocefin) and in the presence of a purified MBL enzyme (such as VIM-1, VIM-2, VIM-4, NDM-1, and IMP-1, at a final concentration ranging from 1 to 70 nM).
(§2) These enzymes were overproduced in derivatives of E. coli BL21(DE3) carrying a pET-9 a (IMP-1, VIM-1, VIM-2, and VIM-4) or pET-15 b (NDM-1) vector into which the metallo-β-lactamase-encoding open reading frame was cloned. Bacterial strains were grown in the auto-inducing medium, ZYP-5052, supplemented with 50 μg/mL kanamycin for 24 h at 37 °C [38]. IMP-1, VIM-1, VIM-2, and VIM-4 were purified by ion-exchange and gel filtration chromatography using an AKTA Purifier platform (GE Healthcare, Uppsala, Sweden) as previously described. NDM-1 (residues 37-270) was produced as an amino-terminal 6 xHis-tag fusion protein and was purified using affinity chromatography. After growth for 26 h at 25 °C, bacterial cells were harvested by centrifugation (10,000× g, 30 min, 4 °C), resuspended in 10 mM HEPES buffer (pH 7.5) containing 0.15 M NaCl (buffer A) in one-fifth of the original culture volume, and lysed by sonication. Cellular debris was removed by centrifugation (12,000× g, 40 min, 4 °C). The clarified sample was loaded on a HisTrap HP column (bed volume, 5 mL; GE Healthcare), followed by a wash step (25 mL) with buffer A containing 20 mM imidazole. Proteins were eluted using buffer A containing 350 mM imidazole. The resulting protein sample was desalted (HiPrep 26/10 Desalting column, GE Healthcare) using 20 mM triethanolamine (pH 7.2) supplemented with 50 μM ZnSO4 and concentrated using an Amicon Ultra-15 (MW cut-off, 10 kDa; Millipore, Burlington, MA, USA). The concentrated sample was loaded on a Superdex 75 prep grade column (XK16/100 column; bed volume, 140 mL; GE Healthcare) and the proteins eluted with buffer A containing 50 μM ZnSO4. The active fractions were pooled and stored at −20 °C. The purity of the protein preparations was estimated >95% by SDS-PAGE analysis. The authenticity of the enzyme preparations was confirmed by electron spray ionization mass spectrometry, as previously described.
(§3) The inhibition constants (Ki) were determined on the basis of a model of competitive inhibition by analyzing the dependence of the ratio v0/vi (v0, hydrolysis velocity in the absence of inhibitor; vi, hydrolysis velocity in the presence of inhibitor) as a function of [I] as already described. The slope of the plot of v0/vi vs. [I], which corresponds to Km^S/(Km^S + [S])Ki (where Km^S is the Km value of the reporter substrate and [S] its concentration in the reaction mixture) and allowed the calculation of the Ki value. Alternatively, a Dixon plot analysis was carried out by measuring the initial hydrolysis rates in the presence of variable concentrations of inhibitor and substrate. This allowed Ki values to be determined and supported the hypothesis that the various compounds behaved as competitive inhibitors of the various tested enzymes. The assays were performed in triplicate.

[1] = system: E. coli LZ2310(pLBII-VIM-2); assay: microbe, parasite or virus in culture; format: cell-based, Escherichia coli
Protocol: The potential activity of selected compounds was assessed by the agar disk-diffusion method, according to the CLSI (Clinical Laboratory Standard Institute) recommendations, using Mueller–Hinton medium. The inhibitor (dissolved in DMSO) was added (maximum volume of 15 μL) to a commercially available disk containing a defined amount of a β-lactam antibiotic (30 μg of cefoxitin (Oxoid, Milan, Italy)). After incubation (18 h at 35 °C), the diameter of the growth inhibition zone was measured and compared to that obtained in the absence of inhibitor. DMSO and EDTA (220 μg) were used as negative and positive controls, respectively. Experiments were performed in triplicate.
These tests were performed on an isogenic laboratory strain obtained after transforming Escherichia coli LZ2310 strain with a derivative of the high copy number plasmid pLB-II carrying the cloned blaVIM-2 gene harboring a cloned gene encoding the functional metallo-β-lactamase. Strain LZ2310 is a triple knockout mutant derived from K12 in which the genes encoding for components of the three major efflux pump systems were inactivated (genotype, ∆norE ∆mdfA N43 acrA1) and was used to generate an hyperpermeable background for MBL production and investigate the potential contribution of such mechanisms to inhibitor efflux.

VIM-4 = target: T2, VIM-4 (Pseudomonas aeruginosa, UniProt A0A0F7KYQ8, S205R); assay: MBL inhibition, reporter substrate method, VIM-4; format: biochemical; conditions: read-out: Inhibition of VIM-4 (dash)
T2 construct: made in house; host or cells: E. coli BL21(DE3) derivative, pET-9a
Protocol: as §1, §2, §3

L1 = target: T3, L1 (Stenotrophomonas maltophilia, UniProt P52700); assay: MBL inhibition, L1 (nitrocefin hydrolysis); format: biochemical; conditions: 100 μM inhibitor; read-out: Inhibition of L1 (dash)
T3 construct: made in house
T3 sequence (P52700 34-290): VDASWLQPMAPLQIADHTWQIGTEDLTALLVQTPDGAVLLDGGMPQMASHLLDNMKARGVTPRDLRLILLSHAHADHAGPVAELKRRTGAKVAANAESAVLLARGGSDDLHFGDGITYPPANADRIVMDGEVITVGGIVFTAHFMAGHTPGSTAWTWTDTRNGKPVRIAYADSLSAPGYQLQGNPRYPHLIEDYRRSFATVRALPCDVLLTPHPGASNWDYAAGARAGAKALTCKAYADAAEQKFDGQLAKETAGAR
Protocol: Compounds were prepared as 10 mM solutions in DMSO before dilution with appropriate buffers. Buffers were 25 mM Hepes pH 7.5 for CphA or 25 mM Hepes pH 7.5, 50 µM ZnCl2 for L1. The rates in the absence of inhibitor were not modified by addition of 1% DMSO. CphA and L1 enzymes, purified as previously described, were used at concentrations between 0.2 and 0.8 nM, respectively. The enzyme and the inhibitor (100 µM) were pre-incubated for 30 min in a volume of 495 µL at room temperature. The hydrolysis of a solution of 100 µM imipenem for CphA was monitored by following the absorbance variation at 300 nm using a Specord 50 PLUS spectrophotometer (Analytik Jena, Jena, Germany). For L1, the reporter substrate was nitrocefin (100 µM). The enzyme activity was measured by following the absorbance variation at 482 nm. The substrate hydrolysis was done at 30 °C. The activity was tested by measuring the initial rates in three samples without inhibitor that allowed to determine the percentage of residual β-lactamase activity in the presence of inhibitors. If the residual activity in the presence of 100 µM inhibitor was <30%, the initial rate conditions were used to study the inhibition in the presence of increasing concentrations of compounds (from 1 to 100 µM) and to determine the competitive inhibition constant Ki. The Hanes linearization of the Henri–Michaelis equation was used, and Ki was calculated on the basis of the following equation, v = (Vmax.S)/[S + Km(1 + I/Ki)]. The assays were performed in triplicates.

[2] = Escherichia coli, read-out: Inhibition Zone Diameter

Compound: O=C(O)c1ccccc1CNn1c(-c2ccccc2)n[nH]c1=S [Compound 1]
- Ki (VIM-2): 1400 nM
- Restoration of cefoxitin activity (in words) ([1]; 30 μg cefoxitin disk, compound 1 at 48 μg, EUCAST clinical breakpoints): able to restore cefoxitin susceptibility
- zone of inhibition at 16 µg/disc [1, 2]: 13 mm
- zone of inhibition at 32 µg/disc [1, 2]: 16 mm
- zone of inhibition at 48 µg/disc [1, 2]: 20 mm
- inhibition at 100 µM (VIM-4): < 30%
- inhibition at 100 µM (L1): < 30%
